Data on 2 compounds can be found in US6723235B2, “Apparatus for screening compound libraries” (priority 1998, dated 2004).

The assay deals with cholera toxin B subunit (Vibrio cholerae serotype O1, UniProt P01556). Type of assay: binding.
Sequence of cholera toxin B subunit (P01556 22-124 limits assumed): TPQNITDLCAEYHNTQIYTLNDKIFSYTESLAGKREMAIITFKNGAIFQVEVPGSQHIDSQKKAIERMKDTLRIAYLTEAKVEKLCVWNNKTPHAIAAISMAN

Take `COC(=O)CCCCCCCCOC1OC(COC2OC(CO)C(O)C(O)C2O)C(O)C(OC2OC(CO)C(O)C(O)C2O)C1O` (centres unmarked) [compound 3, αMan(1→3)[αMan(1→6)]βMan-OGr]: the “break through relative to void volume” value was “broke through in the void volume”. Take `CC(=O)N[C@H]1[C@H](O[C@@H]2[C@H](O[C@]3(C(=O)O)C[C@H](O)[C@@H](NC(C)=O)[C@H]([C@H](O)[C@H](O)CO)O3)[C@@H](O)[C@H](O[C@H]3[C@H](O)[C@@H](O)[C@H](O)O[C@@H]3CO)O[C@@H]2CO)O[C@H](CO)[C@H](O)[C@@H]1O[C@@H]1O[C@H](CO)[C@H](O)[C@H](O)[C@H]1O` [compound 7, GM1 oligosaccharide]: where the note is “pH 6.9”, the break through volume is about 300 µL.
